Experiments:
[1] = molecular target: Human KDR (residues 790-1356) (Homo sapiens (Human), UniProt P35968); assay: Human KDR kinase assay, HTRF KinEase (Example B-2); format: biochemical; conditions: protocol of Example B-2 (other compounds)
Outline: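 Human KDR residues 790-1356 (0.1 ng/well) in buffer with 5 mM MgCl2, 1 mM MnCl2, 1 mM DTT, biotinylated peptide substrate, ATP at Km (4.0 μM), 3% DMSO, 10 compound concentrations; 40 min, room temperature. EDTA stop, streptavidin-XL665/Eu-TK antibody HTRF read 665/620 nm; 4-parameter IC50.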

[2] = molecular target: Mer (phospho-Mer, MERTK-transfected 293A cells) (Homo sapiens (Human), UniProt Q12866); assay: Mer autophosphorylation ELISA in transient transfected 293A cells (Example H); format: cell-based; conditions: cellular activity; Mer autophosphorylation ELISA in transient transfected 293A cells
Chain of Mer (phospho-Mer, MERTK-transfected 293A cells) (Q12866 21-999): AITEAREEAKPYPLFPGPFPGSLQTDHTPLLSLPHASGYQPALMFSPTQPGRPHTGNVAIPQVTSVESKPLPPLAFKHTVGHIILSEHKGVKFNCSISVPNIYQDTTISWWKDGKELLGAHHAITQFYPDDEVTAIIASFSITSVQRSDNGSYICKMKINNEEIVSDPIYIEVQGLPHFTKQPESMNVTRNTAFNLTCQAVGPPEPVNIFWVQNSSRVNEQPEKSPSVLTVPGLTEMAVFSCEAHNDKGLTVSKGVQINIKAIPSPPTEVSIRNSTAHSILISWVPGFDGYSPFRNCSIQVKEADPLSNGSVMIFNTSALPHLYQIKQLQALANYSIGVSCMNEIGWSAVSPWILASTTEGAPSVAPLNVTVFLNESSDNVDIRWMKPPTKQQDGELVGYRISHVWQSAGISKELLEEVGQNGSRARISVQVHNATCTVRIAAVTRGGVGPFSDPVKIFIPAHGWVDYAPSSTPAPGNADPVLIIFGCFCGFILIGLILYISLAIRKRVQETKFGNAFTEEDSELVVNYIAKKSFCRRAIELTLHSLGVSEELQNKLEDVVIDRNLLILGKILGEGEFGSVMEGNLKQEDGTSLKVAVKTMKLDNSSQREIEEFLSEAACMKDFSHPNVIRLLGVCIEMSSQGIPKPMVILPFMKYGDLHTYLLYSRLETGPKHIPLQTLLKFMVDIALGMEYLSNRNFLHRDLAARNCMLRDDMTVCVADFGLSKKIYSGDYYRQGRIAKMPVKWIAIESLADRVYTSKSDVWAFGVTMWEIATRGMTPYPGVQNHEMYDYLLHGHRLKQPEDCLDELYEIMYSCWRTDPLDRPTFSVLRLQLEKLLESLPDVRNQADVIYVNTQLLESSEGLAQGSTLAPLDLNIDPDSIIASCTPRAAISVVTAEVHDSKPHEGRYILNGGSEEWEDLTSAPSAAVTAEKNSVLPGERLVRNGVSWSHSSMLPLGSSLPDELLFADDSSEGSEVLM
Outline: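 293A cells transiently transfected with human MERTK were treated 1 h in serum-free medium with an 8-point compound dilution (0.3% DMSO final). Lysates were assayed by phospho-Mer sandwich ELISA against a phospho-Mer standard; IC50 came from a 4-parameter logistic fit, normalised to DMSO (100%) and reference-inhibitor (0%) controls.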

Chain of Human KDR (residues 790-1356) (P35968 790-1356): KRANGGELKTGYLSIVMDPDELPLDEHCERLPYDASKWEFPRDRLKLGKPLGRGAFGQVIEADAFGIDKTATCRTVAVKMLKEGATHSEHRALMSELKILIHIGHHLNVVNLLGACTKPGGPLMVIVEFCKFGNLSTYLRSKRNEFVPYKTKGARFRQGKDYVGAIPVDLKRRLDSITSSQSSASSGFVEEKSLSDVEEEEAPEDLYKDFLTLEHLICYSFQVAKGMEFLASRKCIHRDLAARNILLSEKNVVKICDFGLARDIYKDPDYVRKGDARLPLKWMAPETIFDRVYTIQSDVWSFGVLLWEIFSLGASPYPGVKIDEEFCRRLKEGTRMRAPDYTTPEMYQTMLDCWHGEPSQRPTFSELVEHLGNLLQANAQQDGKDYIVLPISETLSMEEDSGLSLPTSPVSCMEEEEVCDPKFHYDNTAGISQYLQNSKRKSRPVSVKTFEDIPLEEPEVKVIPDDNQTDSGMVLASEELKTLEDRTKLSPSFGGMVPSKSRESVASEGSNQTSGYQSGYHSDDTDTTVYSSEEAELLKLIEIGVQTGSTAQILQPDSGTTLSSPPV

IC50 [1] [nM]	IC50 [2] [nM]	Structure (SMILES)
100 to 300	< 100	COc1ccc2c(Oc3ccc(NC(=O)c4cnc(C)c(-c5ccc(F)cc5)c4O)cc3F)ccnc2c1 [Compound 105, N-[3-Fluoro-4-(7-methoxyquinolin-4-yl)oxyphenyl]-5-(4-fluorophenyl)-4-hydroxy-6-methylpyridine-3-carboxamide]
> 300	< 100	COc1ccc2c(Oc3ccc(NC(=O)c4cn(C(C)C)c(C)c(-c5ccc(F)cc5)c4=O)cc3F)ccnc2c1 [Compound 106, N-[3-Fluoro-4-(7-methoxyquinolin-4-yl)oxyphenyl]-5-(4-fluorophenyl)-6-methyl-4-oxo-1-propan-2-ylpyridine-3-carboxamide]
> 300	< 100	CCn1cc(C(=O)Nc2ccc(Oc3ccnc4cc(OC)ccc34)c(F)c2)c(=O)c(-c2ccc(F)cc2)c1C [Compound 107, 1-Ethyl-N-[3-fluoro-4-(7-methoxyquinolin-4-yl)oxyphenyl]-5-(4-fluorophenyl)-6-methyl-4-oxopyridine-3-carboxamide]
< 100	< 100	COc1ccc2c(Oc3ccc(NC(=O)c4cnc(C)c(-c5ccc(F)cc5)c4O)cc3)ccnc2c1 [Compound 108, 5-(4-Fluorophenyl)-4-hydroxy-N-[4-(7-methoxyquinolin-4-yl)oxyphenyl]-6-methylpyridine-3-carboxamide]
< 100	< 100	COc1cc2nccc(Oc3ccc(NC(=O)c4cnc(C)c(-c5ccc(F)cc5)c4O)cc3F)c2cc1OC [Compound 109, N-[4-(6,7-Dimethoxyquinolin-4-yl)oxy-3-fluorophenyl]-5-(4-fluorophenyl)-4-hydroxy-6-methylpyridine-3-carboxamide]
> 300	< 100	COc1cnc2c(Oc3ccc(NC(=O)c4cn(C)c(C)c(-c5ccc(F)cc5)c4=O)cc3)ccnc2c1 [Compound 111, 5-(4-Fluorophenyl)-N-[4-[(7-methoxy-1,5-naphthyridin-4-yl)oxy]phenyl]-1,6-dimethyl-4-oxopyridine-3-carboxamide]
> 300	< 100	COc1cnc2c(Oc3ccc(NC(=O)c4cn(C)cc(-c5ccc(F)cc5)c4=O)cc3F)ccnc2c1 [Compound 112, N-[3-Fluoro-4-[(7-methoxy-1,5-naphthyridin-4-yl)oxy]phenyl]-5-(4-fluorophenyl)-1-methyl-4-oxopyridine-3-carboxamide]
> 300	< 100	COc1ccc2nccc(Oc3ccc(NC(=O)c4cn(C)c(C)c(-c5ccc(F)cc5)c4=O)cc3F)c2n1 [Compound 113, N-[3-Fluoro-4-[(6-methoxy-1,5-naphthyridin-4-yl)oxy]phenyl]-5-(4-fluorophenyl)-1,6-dimethyl-4-oxopyridine-3-carboxamide]
< 100	< 100	COc1cc2nccc(Oc3ccc(NC(=O)c4cn(C(C)C)c(C)c(-c5ccc(F)cc5)c4=O)cc3)c2nc1OC [Compound 115, N-[4-[(6,7-Dimethoxy-1,5-naphthyridin-4-yl)oxy]phenyl]-5-(4-fluorophenyl)-6-methyl-4-oxo-1-propan-2-ylpyridine-3-carboxamide]

The remaining lines, values behind:

Structure (SMILES)	IC50 [1] [nM]	IC50 [2] [nM]
COc1cc2nccc(Oc3ccc(NC(=O)c4cnc(C)n(-c5ccc(F)cc5)c4=O)cc3F)c2nc1OC [Compound 97, N-[4-[(6,7-Dimethoxy-1,5-naphthyridin-4-yl)oxy]-3-fluorophenyl]-1-(4-fluorophenyl)-2-methyl-6-oxopyrimidine-5-carboxamide]	< 100	< 100
COc1cc2nccc(Oc3ccc(NC(=O)c4c(C)ncn(-c5ccc(F)cc5)c4=O)cc3F)c2nc1OC [Compound 98, N-[4-[(6,7-Dimethoxy-1,5-naphthyridin-4-yl)oxy]-3-fluorophenyl]-1-(4-fluorophenyl)-4-methyl-6-oxopyrimidine-5-carboxamide]	< 100	< 100
COc1cc2nccc(Oc3ccc(NC(=O)c4cnc(N(C)C)n(-c5ccc(F)cc5)c4=O)cc3F)c2nc1OC [Compound 100, N-[4-[(6,7-Dimethoxy-1,5-naphthyridin-4-yl)oxy]-3-fluorophenyl]-2-(dimethylamino)-1-(4-fluorophenyl)-6-oxopyrimidine-5-carboxamide]	< 100	< 100
COc1cc2nccc(Oc3ccc(NC(=O)c4c(C)nc(C)n(-c5ccc(F)cc5)c4=O)cc3F)c2nc1OC [Compound 101, N-[4-[(6,7-Dimethoxy-1,5-naphthyridin-4-yl)oxy]-3-fluorophenyl]-1-(4-fluorophenyl)-2,4-dimethyl-6-oxopyrimidine-5-carboxamide]	< 100	< 100
COc1cc2nccc(Oc3ccc(NC(=O)c4c[nH]c(=O)n(-c5ccc(F)cc5)c4=O)cc3F)c2nc1OC [Compound 102, N-[4-[(6,7-Dimethoxy-1,5-naphthyridin-4-yl)oxy]-3-fluorophenyl]-3-(4-fluorophenyl)-2,4-dioxo-1H-pyrimidine-5-carboxamide]	< 100	< 100
CCn1cc(C(=O)Nc2ccc(Oc3ccnc4cc(OC)c(OC)nc34)c(F)c2)c(=O)c(-c2ccc(F)cc2)c1 [Compound 116, N-[4-[(6,7-Dimethoxy-1,5-naphthyridin-4-yl)oxy]-3-fluorophenyl]-1-ethyl-5-(4-fluorophenyl)-4-oxopyridine-3-carboxamide]	< 100	< 100
COc1cc2nccc(Oc3ccc(NC(=O)c4cn(CCO)cc(-c5ccc(F)cc5)c4=O)cc3F)c2nc1OC [Compound 117, N-[4-[(6,7-Dimethoxy-1,5-naphthyridin-4-yl)oxy]-3-fluorophenyl]-5-(4-fluorophenyl)-1-(2-hydroxyethyl)-4-oxopyridine-3-carboxamide]	< 100	< 100
COc1cc2nccc(Oc3ccc(NC(=O)c4cncc(-c5ccc(F)cc5)c4O)cc3)c2nc1OC [Compound 118, N-[4-[(6,7-Dimethoxy-1,5-naphthyridin-4-yl)oxy]phenyl]-5-(4-fluorophenyl)-4-hydroxypyridine-3-carboxamide]	< 100	< 100
